These are literature values, as cited in patent publication US12503489B2, “Method for producing antibody-drug conjugate” (DAIICHI SANKYO COMPANY, LIMITED, priority 2017, dated 2025).

In the data set the target is T1, topoisomerase I (Homo sapiens, UniProt P11387).
T1 sequence (P11387 1-765): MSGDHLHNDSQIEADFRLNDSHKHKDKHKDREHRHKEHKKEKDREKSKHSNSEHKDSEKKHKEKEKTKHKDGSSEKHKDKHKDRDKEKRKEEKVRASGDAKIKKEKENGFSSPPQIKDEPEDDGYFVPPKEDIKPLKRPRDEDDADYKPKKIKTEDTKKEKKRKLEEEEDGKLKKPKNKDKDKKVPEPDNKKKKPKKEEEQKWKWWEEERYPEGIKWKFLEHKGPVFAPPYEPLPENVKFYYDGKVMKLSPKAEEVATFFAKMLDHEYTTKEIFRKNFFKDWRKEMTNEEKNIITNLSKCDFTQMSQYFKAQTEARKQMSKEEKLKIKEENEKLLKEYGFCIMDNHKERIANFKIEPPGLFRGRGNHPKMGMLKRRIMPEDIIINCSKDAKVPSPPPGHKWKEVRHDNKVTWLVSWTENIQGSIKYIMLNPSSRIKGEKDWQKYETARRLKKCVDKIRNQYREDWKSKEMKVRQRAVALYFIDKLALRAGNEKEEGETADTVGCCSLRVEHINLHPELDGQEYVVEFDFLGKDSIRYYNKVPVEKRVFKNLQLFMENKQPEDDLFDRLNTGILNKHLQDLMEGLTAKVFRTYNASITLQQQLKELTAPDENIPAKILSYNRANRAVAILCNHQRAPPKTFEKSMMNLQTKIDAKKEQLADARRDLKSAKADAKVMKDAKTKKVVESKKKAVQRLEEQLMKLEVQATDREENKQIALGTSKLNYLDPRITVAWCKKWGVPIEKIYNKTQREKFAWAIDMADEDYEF
To be noted: Ogitani Y. et al., Clinical Cancer Research 2016; 22 (20): 5097-5108.

In the case of `CC[C@@]1(O)C(=O)OCc2c1cc1n(c2=O)Cc2c-1nc1cc(F)c(C)c3c1c2[C@@H](NC(=O)CO)CC3` [formula (22)], the “topoisomerase I inhibitory effect” value was “confirmed to have a topoisomerase I inhibitory effect”.
